Literature values as cited in patent publication US20250144250A1, “PH-SENSITIVE FLUOROPHORES” (The General Hospital Corporation, priority 2022, published 2025).

Conditions: in DMSO; cited from earlier work

Structure (SMILES): CC1(C)C(/C=C/C=C/C=C/C=C2\N(CCCCS(=O)(=O)O)c3ccc4ccccc4c3C2(C)C)=[N+](CCCCS(=O)(=O)[O-])c2ccc3ccccc3c21 [ICG, indocyanine green]
- fluorescence QY of calibration standard: 13%
